# In US10316064B2, “Teicoplanin analogs and uses thereof” (Academia Sinica, priority 2014, dated 2019):
# Where two headings read alike, the source gives them in different places.
# What was measured:
# [1] = system: Orf11*/Dbv8; assay: Isothermal titration calorimetry (ITC) analysis of substrate-enzyme affinity; assay type: binding; details: ligand injected into protein solution (0.1 mM)
# Procedure: (§1) ITC thermograms of Orf11* versus CoA, acetyl-CoA, butyryl-CoA, hexanoyl-CoA, octanoyl-CoA, decanoyl-CoA, lauroyl-CoA, myristoyl-CoA, palmitoyl-CoA, stearoyl-CoA or Tei-pseudoaglycone. Each exothermic heat pulse corresponds to an injection of 2 μl of ligands (1 mM˜5 mM) into a protein solution (0.1 mM); integrated heat areas constitute a differential binding curve that was fitted with a standard single-site binding model (Origin 7.0, MicroCal iTC200).
# (§2) Protein expression, purification and confirmation of purity were performed according to standard protocols. Acyl-CoA analogs were chemically synthesized as described previously (Huang, Y. T. et al. In vitro characterization of enzymes involved in the synthesis of nonproteinogenic residue (2S,3S)-beta-methylphenylalanine in glycopeptide antibiotic mannopeptimycin. Chembiochem 10, 2480-2487, doi:10.1002/cbic.200900351 (2009); Li, T. L., Spiteller, D. & Spencer, J. B. Identification of a pentaketide stilbene produced by a type III polyketide synthase from Pinus sylvestris and characterisation of free coenzyme A intermediates. Chembiochem 10, 896-901, doi:10.1002/cbic.200800840 (2009)). Single-wavelength anomalous dispersion (SAD) and molecular replacement (MR) methods were used to solve structures of native and complex Orf11*/Dbv8. Mutants were made by using QuickChange®. Biochemical analyses for wild type protein and mutants were performed using LC-MS. Oligomerization states of the proteins in solution were determined by gel filtration chromatography and analytical ultracentrifugation (AUC). Substrate-enzyme affinity was determined using isothermal titration calorimetry (ITC). Biological assays were performed according standard protocols.
# [2] = molecular target: T1, Orf11* (Actinoplanes teichomyceticus, UniProt Q70AY4); assay: isothermal titration calorimetry (ITC) of acyl-CoA ligands versus Orf11* (FIG. 9); assay type: binding
# T1 sequence (Q70AY4 1-323): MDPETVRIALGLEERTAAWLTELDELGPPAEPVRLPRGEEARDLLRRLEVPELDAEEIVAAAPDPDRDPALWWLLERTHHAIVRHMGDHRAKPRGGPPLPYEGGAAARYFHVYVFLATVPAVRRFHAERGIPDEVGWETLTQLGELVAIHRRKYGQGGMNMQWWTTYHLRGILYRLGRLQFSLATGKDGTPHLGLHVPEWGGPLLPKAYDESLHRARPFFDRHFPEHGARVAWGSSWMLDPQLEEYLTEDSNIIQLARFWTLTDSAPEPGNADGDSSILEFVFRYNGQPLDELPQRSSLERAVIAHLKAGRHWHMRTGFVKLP
# Procedure: as §1
# The orf11* and dbv8 genes were amplified and subcloned into the expression vector pET28a(+). The clones were transformed into E. coli BL21(DE3) for protein over-expression. A typical procedure is described as follows: One liter of LB medium containing 50 mg/L kanamycin was inoculated with 10 mL of an overnight culture grown in LB medium (containing 50 mg/L kanamycin), induced with 1 mL 1.0M IPTG (to give 1.0 mM; exact concentrations varied between proteins) at an OD600 of 0.7, and grown for a further 8 hours at 16° C. Cells were harvested by centrifugation at 6000 rpm for 20 min at 4° C., resuspended in 30 mL binding buffer (50 mM Tris at pH 8.0, 500 mM NaCl, 10 mM imidazole, 10% glycerol) and disrupted by microfluidizer. The cell lysate was centrifuged at 18000 rpm for 30 minutes to remove cell debris. The supernatant was applied to a Ni^2+-NTA agarose resin column (2 mL, Novagen) pre-equilibrated with binding buffer. The column was washed sequentially with 20 mL of binding buffer and 10 mL washing buffer (50 mM Tris at pH 8.0, 500 mM NaCl, 50 mM imidazole, 10% glycerol). The bound protein then was eluted with 10 mL of elution buffer (50 mM Tris at pH 8.0, 500 mM NaCl, 250 mM imidazole, 10% glycerol). Gel filtration was performed using an Äkta FPLC system equipped with an S-200 Superdex column (Amersham Bioscience) under isocratic conditions (50 mM Tris at pH 8.0, 500 mM NaCl). The buffer was exchanged using Millipore centrifugal filters and HEPES buffer (50 mM, pH 8.0). Protein purity was determined by SDS-PAGE and Western blotting, and electrospray mass spectrometry (ESI-MS). Protein concentrations were estimated using the Bradford assay.
# as §2
# The GNAT domain in Orf11*/Dbv8 differs from the canonical GNAT fold as it lacks the first β strand, and the C-terminus extends with four additional helices (α10-α13). β-Strands β3 and β4 splay apart at C-termini, where Pro198 replaces a typical β-bulge. In a decanoyl-CoA-complexed binary structure (FIG. 2c), the decanoyl-CoA bends in an ‘S’ shape edging in the splayed fingers β3 and β4 (FIG. 8). […]
# [3] = system: E. faecalis (ATCC 51559); assay: Mouse infection treatment study, ED50 (rescue of 50% infected mice); assay type: in vivo
# Procedure: The preliminary ED50 (potency) of the 2-decanoyl,6-octanoyl teicoplanin analog was determined as follows. 6-8 weeks BALB/c female mice were purchased from the National Laboratory Animal Breeding and Research Center, Taipei, Taiwan. Mice with average body weight of 25 to 30 g were subjected to infection via intraperitoneal (i.p.) injection with 1×10^10 cfu/mouse of E. faecalis (ATCC 51559) at day 0. For the treatment study, mice were randomly assigned into five groups at the start of the experiment and administered different amount of either vancomycin, teicoplanin, 2-C10-6-C8-Teicoplanin, or saline (as a blank control) by i.v. twice a day for two days (from day 1 to day 2, a total of 4 doses). The ED50 was determine by the concentration of compounds sufficient to rescue 50% infected mice.
# [4] = system: ATCC 29302; assay: MIC by broth microdilution (NCCLS); assay type: cell-based
# Procedure: (§3) The MIC values were determined by the broth microdilution method, as recommended by the National Committee for Clinical Laboratory Standards (NCCLS). Briefly, overnight cultures of tested bacteria were suspended to a turbidity of 0.1 OD units (1˜5×10^8 CFU/ml). Microtiter plates containing serial dilutions of each antimicrobial agent (0, 1, 2, 4, 8, 16, 32, 64, and 128 μg/ml) were inoculated with each organism to yield the appropriate density (1˜5×10^5 CFU/ml) in a 200 μL final volume. The plates were incubated for 18˜22 h at 37° C.
# (§4) MICs were determined as concentrations at which no growth was observed against the strain tested. Experiments were performed in double duplicate. ATCC 29302/ATCC 33186: a standard strain; ATCC 51299: a low-level vancomycin-resistant (VanB type); ATCC 51559: a multidrug-resistant strain (ampicillin, ciprofloxacin, gentamicin, rifampin, teicoplanin and vancomycin, VanA type VRE); ATCC 700221: a strain resistant to vancomycin, VanA type VRE. ATCC 700802 is a strain resistant to gentamicins and vancomycin.
# [5] = system: ATCC 33186; assay: MIC by broth microdilution (NCCLS); assay type: cell-based
# Procedure: as §3, §4
# [6] = system: ATCC 51299; assay: MIC by broth microdilution (NCCLS); assay type: cell-based
# Procedure: as §3, §4
# [7] = system: ATCC 700221; assay: MIC by broth microdilution (NCCLS); assay type: cell-based
# Procedure: as §3, §4
# [8] = system: ATCC 700802; assay: MIC by broth microdilution (NCCLS); assay type: cell-based
# Procedure: as §3, §4
# [9] = system: ATCC 51559; assay: MIC by broth microdilution (NCCLS); assay type: cell-based, E. faecalis
# Procedure: as §3, §4
# [10] = ITC, injections of 2 μl of ligand (1 mM˜5 mM) into protein solution (0.1 mM), single-site binding model (Origin 7.0, MicroCal iTC200), Orf11* expressed from pET28a(+) in E. coli BL21(DE3), no mutation stated, read-out: dissociation constant (Kd)
# [11] = standard strain, 18~22 h at 37° C.
compound,measurement,setting,value
CC(C)(COP(=O)(O)OP(=O)(O)OC[C@H]1O[C@@H](n2cnc3c(N)ncnc32)[C@H](O)[C@@H]1OP(=O)(O)O)[C@@H](O)C(=O)NCCC(=O)NCCSC(=O)CC(=O)O [malonyl-CoA],binding to the enzyme (ITC),[1],does not bind
CCCCCCCC(=O)SCCNC(=O)CCNC(=O)[C@H](O)C(C)(C)COP(=O)(O)OP(=O)(O)OC[C@H]1O[C@@H](n2cnc3c(N)ncnc32)[C@H](O)[C@@H]1OP(=O)(O)O [octanoyl-CoA],Kd,[2]; [10],1 ± 0.1 µM
Teicoplanin,ED50 against ATCC 51559,"[3]; BALB/c female mice infected i.p. with 1×10^10 cfu/mouse, i.v. twice a day for two days (4 doses), amount rescuing 50% infected mice, preliminary",>128 mg/kg
same,MIC ATCC 29302,[4]; [11],0.25 µg/mL
same,MIC ATCC 33186,[5]; [11],0.25 µg/mL
same,MIC ATCC 51299,"[6]; low-level vancomycin-resistant (VanB type), 18~22 h at 37° C.",0.5 µg/mL
same,MIC ATCC 700221,"[7]; resistant to vancomycin, VanA type VRE, 18~22 h at 37° C.",>128 µg/mL
same,MIC ATCC 700802,"[8]; resistant to gentamicins and vancomycin, 18~22 h at 37° C.",0.5 µg/mL
same,MIC ATCC 51559,"[9]; multidrug-resistant strain, VanA type VRE, 18~22 h at 37° C.",256 µg/mL
CCCCCCCCCCCCCCCC(=O)SCCNC(=O)CCNC(=O)[C@H](O)C(C)(C)COP(=O)(O)OP(=O)(O)OC[C@H]1O[C@@H](n2cnc3c(N)ncnc32)[C@H](O)[C@@H]1OP(=O)(O)O [palmitoyl-CoA],Kd,[2]; [10],0.4 ± 0.08 µM
CCCC(=O)SCCNC(=O)CCNC(=O)[C@H](O)C(C)(C)COP(=O)(O)OP(=O)(O)OC[C@H]1O[C@@H](n2cnc3c(N)ncnc32)[C@H](O)[C@@H]1OP(=O)(O)O [butyryl-CoA],Kd,[2],111 ± 23 µM
"CC(C)(COP(=O)(O)OP(=O)(O)OC[C@H]1O[C@@H](n2cnc3c(N)ncnc32)[C@H](O)[C@@H]1OP(=O)(O)O)[C@@H](O)C(=O)NCCC(=O)NCCS [CoA 5, coenzyme A]",binding to the enzyme (ITC),[1],barely binds
CCCCCCCCCCCC(=O)SCCNC(=O)CCNC(=O)[C@H](O)C(C)(C)COP(=O)(O)OP(=O)(O)OC[C@H]1O[C@@H](n2cnc3c(N)ncnc32)[C@H](O)[C@@H]1OP(=O)(O)O [lauroyl-CoA],Kd,[2]; [10],4.1 ± 0.8 µM
"CN[C@H](CC(C)C)C(=O)N[C@H]1C(=O)N[C@@H](CC(N)=O)C(=O)N[C@H]2C(=O)N[C@H]3C(=O)N[C@H](C(=O)N[C@H](C(=O)O)c4cc(O)cc(O)c4-c4cc3ccc4O)[C@H](O)c3ccc(c(Cl)c3)Oc3cc2cc(c3O[C@@H]2O[C@H](CO)[C@@H](O)[C@H](O)[C@H]2O[C@H]2C[C@](C)(N)[C@H](O)[C@H](C)O2)Oc2ccc(cc2Cl)[C@H]1O [Vancomycin, vancomycin]",ED50,"[3]; Enterococcus faecalis, ATCC51559, 48 h, read-out: ED50 against ATCC 51559",> 128 mg/kg
same,MIC,"[4]; 22 h, read-out: MIC ATCC 29302",1 µg/mL
same,MIC,"[5]; 22 h, read-out: MIC ATCC 33186",4 µg/mL
same,MIC,"[6]; 22 h, read-out: MIC ATCC 51299",> 64 µg/mL
same,MIC,"[7]; Enterococcus, ATCC 700221 / VRE, 22 h, read-out: MIC ATCC 700221",> 128 µg/mL
same,MIC,"[8]; 22 h, read-out: MIC ATCC 700802",64 µg/mL
same,MIC,"[9]; Enterococcus, ATCC 51559 / VRE, 22 h, read-out: MIC ATCC 51559",1020 µg/mL
CCCCCCCCCCCCCC(=O)SCCNC(=O)CCNC(=O)[C@H](O)C(C)(C)COP(=O)(O)OP(=O)(O)OC[C@H]1O[C@@H](n2cnc3c(N)ncnc32)[C@H](O)[C@@H]1OP(=O)(O)O [myristoyl-CoA],Kd,[2],5.9 ± 1.2 µM
CCCCCC(=O)SCCNC(=O)CCNC(=O)[C@H](O)C(C)(C)COP(=O)(O)OP(=O)(O)OC[C@H]1O[C@@H](n2cnc3c(N)ncnc32)[C@H](O)[C@@H]1OP(=O)(O)O [hexanoyl-CoA],Kd,[2]; [10],85.6 ± 9 µM
CC(C(=O)O)C(=O)SCCNC(=O)CCNC(=O)[C@H](O)C(C)(C)COP(=O)(O)OP(=O)(O)OC[C@H]1O[C@@H](n2cnc3c(N)ncnc32)[C@H](O)[C@@H]1OP(=O)(O)O (stereo partly drawn) [methylmalonyl-CoA],binding to the enzyme (ITC),[1],does not bind
CC(C)(COP(=O)(O)OP(=O)(O)OC[C@H]1O[C@@H](n2cnc3c(N)ncnc32)[C@H](O)[C@@H]1OP(=O)(O)O)[C@@H](O)C(=O)NCCC(=O)NCCSC(=O)c1ccccc1 [benzoyl-CoA],binding to the enzyme (ITC),[1],does not bind
CCCCCCCCCCCCCCCCCC(=O)SCCNC(=O)CCNC(=O)[C@H](O)C(C)(C)COP(=O)(O)OP(=O)(O)OC[C@H]1O[C@@H](n2cnc3c(N)ncnc32)[C@H](O)[C@@H]1OP(=O)(O)O [stearoyl-CoA],Kd,[2]; [10],4.3 ± 0.8 µM
CCCCCCCCCC(=O)SCCNC(=O)CCNC(=O)[C@H](O)C(C)(C)COP(=O)(O)OP(=O)(O)OC[C@H]1O[C@@H](n2cnc3c(N)ncnc32)[C@H](O)[C@@H]1OP(=O)(O)O [decanoyl-CoA],Kd,[2]; [10],1 ± 0.1 µM
Tei pseudoaglycone [Tei pseudoaglycone 3],binding to the enzyme (ITC),[1],barely binds
